{"source": "patent US12698467B2", "about": "“Tissue engineered scaffolds, instrumented bioreactors and methods of use thereof” (President and Fellows of Harvard College, priority 2018, dated 2026)", "key": {"[1]": {"test_system": "human induced pluripotent stem cell-derived cardiomyocyte (hiPSC-CM) tissue-engineered ventricles", "test": "β-adrenergic response of tissue-engineered hiPSC-CM ventricles by pressure-volume catheterization", "format": "cell-based", "protocol": "(§1) Intra-ventricular pressure and volume were measured simultaneously using a Millar MPVS-Ultra single segment foundation system for rats with SPR-869NR rat pressure-volume (PV) catheters (ADInstruments, Colorado Springs, CO). Catheter calibration and PV experiments were performed in freshly prepared Tyrode's solution. First, tissue-engineered ventricles were transferred to a 3.5 cm petri dish mounted on a temperature-controlled stage (Warner Instruments, Hamden Conn.) to maintain 35° C. working temperature. Ventricles were sutured to silicone tubing through which catheters were inserted (FIG. 12A). Data acquired at a sampling rate of 2,000 samples per second using manufacturer-supplied acquisition systems (Millar MPVS ultra, ADInstruments LabChart) and was exported for post-processing with custom Matlab scripts (MathWorks, Natick MA).\n(§2) Catheter calibration. Catheters were equilibrated at 35° C. prior to use and calibrated for pressure using a manometer (Meriam M2; Meriam Process Technologies, Cleveland, OH) and volume using manufacturer-supplied cuvettes (Millar P/N 910-1048). […] Separate scaffold-specific calibrations were performed, where cell-free scaffolds were inflated and deflated by manual application of pressure through a solution-filled syringe connected to the ventricle through a junction port. […] In some cases, pressure or volume signal noise and drift were reduced by post-processing using Matlab's smooth and polyfit functions (FIG. 12C). Pressure and volume signals were normalized by polynomial background subtraction to reduce unwanted signal drift from large data sets, clarifying frequency-domain analysis of ventricle beat rates over these time periods (FIGS. 13A-13D).\n(§3) β-adrenergic response of tissue-engineered ventricles. The contractile response of tissue-engineered ventricles to increasing concentrations of the β-adrenergic agonist isoproterenol was measured as follows. A 100 mM stock solution of isoproterenol (Sigma-Aldrich) containing 110 μM ascorbic acid (Sigma-Aldrich) and 45 μM EDTA (Sigma-Aldrich) was prepared in Tyrode's solution and stored at −20° C. […]"}, "[2]": {"test_system": "neonatal rat ventricular myocyte (NRVM) tissue-engineered ventricles", "test": "β-adrenergic response of tissue-engineered NRVM ventricles by pressure-volume catheterization", "format": "cell-based", "protocol": "as §1, §2, §3"}}, "note": "Entries after “also recorded” stand apart in the source; their conditions may differ."}
{"smiles": "CC(C)NCC(O)c1ccc(O)c(O)c1", "note": "(stereo not drawn) [isoproterenol]", "values": [{"measurement": "chronotropic response of ventricle beat rate", "setting": "[1]; hiPSC-CM ventricles, 1 e^−10 M to 1 e^−4 M, cumulative doses", "value": "positive chronotropic response"}, {"measurement": "increase of ventricle beat rate", "setting": "[1]; hiPSC-CM ventricles, 10^−4 M isoproterenol, compared to spontaneous baseline (no Iso)", "value": "~ 40%"}, {"measurement": "effect on stroke work (pressure/volume loops)", "setting": "[1]; human (hiPSC-CM) ventricles, before vs after isoproterenol exposure", "value": "reduction in stroke work; also recorded: reduced stroke work"}, {"measurement": "chronotropic response of ventricle beat rate", "setting": "[2]; NRVM ventricles, 1 e^−10 M to 1 e^−4 M, cumulative doses", "value": "positive chronotropic response"}, {"measurement": "increase of ventricle beat rate", "setting": "[2]; NRVM ventricles, 10^−4 M isoproterenol, compared to spontaneous baseline (no Iso)", "value": "~ 40%"}, {"measurement": "effect on stroke work (pressure/volume loops)", "setting": "[2]; rat (NRVM) ventricles, before vs after isoproterenol exposure", "value": "reduction in stroke work; also recorded: reduced stroke work"}]}
